In patent US12594282B2, “Use of small molecule compounds in the treatment of diseases mediated by lung epithelial cell injury and/or vascular endothelial cell injury” (Guangzhou Cellprotek Pharmaceutical Co., Ltd., priority 2020, dated 2026):

Experiments:
NR4A3 = NR4A3 protein expression under OGD-R, RAOEC (Western blot, immunofluorescence); type: cell-based, rat; details: OGD 4 hours, restoration 24 hours, 1, 3, 10 μM given at restoration
Procedure: HUVEC cells were cultured in modified DMEM medium containing 10% fetal bovine serum. When the cells reached about 80% confluence, the cells were digested with 0.25% trypsin, and then pipetted evenly with modified DMEM containing 10% […]. The cell concentration was adjusted to 1×10^5 cells/mL, and the cells were seeded at 400 uL/well in a 24-well plate, and the experiment was carried out when the cells grew to about 70% confluence. RAOEC cells were cultured in high-glucose DMEM medium containing 10% fetal bovine serum, and the seeding conditions were the same as those of HUVEC. During the OGD-R injury treatment, the hypoxia workstation was set to have an oxygen concentration of 1% (1% O2, 5% CO2, 94% N2), a temperature of 37° C., and a humidity of 85%. A sugar-free DMEM medium was placed in the hypoxia workstation for pre-hypoxia for 3 hours. The medium in the culture plate was aspirated, and the plate was washed twice with preheated sugar-free DMEM medium, and 100 uL of sugar-free DMEM medium was added to each well. The culture plate was placed in the hypoxia workstation, and 300 uL of pre-hypoxic sugar-free DMEM medium was added to each well, and then the culture plate was placed in the hypoxia workstation for additional hypoxia for 4 hours. Restoration was then performed. The culture plate was taken out, and the sugar-free DMEM medium was replaced with 400 uL of normal medium containing 10% fetal bovine serum, and then the plate was placed in a 37° C. 5% CO2 cell incubator for culturing for 24 hours or a specified time period. For the cells in the normal group, it was only replaced with 400 uL of new normal medium containing 10% fetal bovine serum. […]
The cells were washed twice with pre-cooled PBS, then scraped off with a cell scraper and transferred to a 1.5 mL centrifuge tube, and centrifugation was performed at 4° C. and 1000 g for 5 minutes. […] Each protein sample was then quantified using the BCA protein quantification kit. After protein quantification, protein lysis buffer was used to adjust the protein concentration of each sample to be consistent with the protein sample with the lowest concentration, and then each protein sample was sufficiently mixed with 5× protein loading buffer at a ratio of 4:1. […]

[1] = test system: primary cerebellar granule neuron; assay: Intracellular lactate assay in glutamate-stimulated primary cerebellar granule neurons; type: cell-based, mice; details: 10 μM, pre-incubation 20 mins; 200 μM glutamate for 15 mins
Procedure: The cells were obtained from SD P7-8 neonatal mice. The cerebellum was taken, and the meninges and blood vessels were removed using microtweezers; the isolated cerebellar tissue was transferred to another dish containing dissection solution. The tissue was cut into pieces as small as possible using a tissue scissor. Digestion: The tissue in pieces was added into 7 mL of 0.25% trypsin digestive solution with a pipet, and was digested at 37° C. for 15 mins; the bench surface was cleaned and the instruments were washed. The container was turned upside down several times every five minutes to bring the tissue into better contact with the digestive solution. End of digestion: After the digestion, it can be seen that the tissue was sticked together and suspended in the liquid due to cell disruption and release of DNA. The digestion was terminated by adding 3 mL of RNase-containing 10% FBS DMEM medium. […] The cells were counted with a hand-held cell counter, and the seeding density was 4.0-5.0×10^5 cells/mL. […]
Pretreatment: The number of cells used for the determination of intracellular lactate content was 1-2*10^6. […] Centrifugation was performed at 16,000 g for 5 mins at 4° C., 160 μL of supernatant was collected into a new EP tube, and the remaining supernatant was subjected to BCA protein quantification. […]

For C[C@@]12CCCC1C1C[C@@H](O)[C@]3(O)C[C@@H](O)CC[C@]3(C)C1CC2 (stereo partly drawn) [YC-6, 5α-androst-3β,5,6β-triol], the NR4A3 protein expression (NR4A3) was “dose-dependently increase the protein expression of NR4A3” and the “glutamate-induced intracellular accumulation of lactate” value [1] was “significantly inhibited the accumulation of lactate”.
